Data from patent US6352718B1, “Vasopressin antagonist formulation and process” (American Cyanamid Company, priority 1999, dated 2002).

Assay: Solubility in orally acceptable oils and aqueous systems
Format: physicochemical
Conditions: in conventional, orally acceptable oils, such as safflower or sesame seed oils, and in aqueous systems

solubility: highly insoluble
SMILES: Cc1ccc(F)cc1C(=O)Nc1ccc(C(=O)N2Cc3cccn3Cc3ccccc32)c(Cl)c1 [VPA-985, N-[4-(5H-pyrrolo[2,1-c][1,4]benzodiazepin-10(11H)ylcarbonyl)-3-chlorophenyl]-5-fluoro-2-methylbenzamide]
